Results as given in patent US12162858B2, “Quinoline derivatives as inhibitors of AXL/MER RTK and CSF1R” (QURIENT CO., LTD., priority 2018, dated 2024).
pIC50: −log10 of the molar value.

Experiments:
[1] = target: CSF1R (Homo sapiens, UniProt P07333); assay: Cellular CSF1R inhibition ELISA (p-CSF1R, M-CSF-induced) using THP-1 cells; type: cell-based; design: THP-1 cells act as a model for human monocytes; endogenous in cells; host or cells: THP-1
Text: The normal proto-oncogene c-fms encodes the macrophage growth factor (M-CSF, also known as CSF1) receptor involved in growth, survival, and differentiation along the monocyte-macrophage lineage. THP-1 cells act as a model for human monocytes. It confirms that an increased phosphorylation of CSF1R (p-CSF1R) can be observed, when induced by CSF1R ligand, CSF1.
The THP-1 cells should be maintained from 5×10^5 to 1×10^6 cells/ml in the cell culture flask. After centrifugation, the supernatant is aspirated. The cell pellet is re-suspended with pre-warmed growth medium (RPMI1640, 10% FBS, 0.05 mM 2-Mercaptoethanol) and cells are separated by pipetting 6 times up and down with a 10 ml serological pipette. The cell suspension has to be diluted to a final concentration of 2×10^5 cells per 80 μl with pre-warmed growth medium. 80 μl of cell suspension is added to all wells of plates. Cell-plates are incubated at 37° C./5% CO2. Dissolve compound in 100% DMSO to make 10 mM stock solutions (Aliquots stored in the Nitrogen Cabinet). Dilute 10 mM compounds solutions for 2-fold in 100% DMSO to get 5 mM solutions (10 μl+10 μl DMSO), and then make a 3-fold serial dilution (10 μl+20 μl DMSO) for 10 doses. For reference compounds: Dilute 10 mM compounds solutions for 20-fold in 100% DMSO to get 0.5 mM solutions (2 μl+38 μl DMSO), and then make a 3-fold serial dilution (10 μl+20 μl DMSO) for 10 doses. Transfer 2 μl diluted compounds to 198 μl medium to get solution of 50 μM concentration at top point for compounds and 5 μM for reference compounds. Then transfer 20 μl cpd solution into assay plate (Duplicate wells). The plate is incubated at 37° C./5% CO2 for 24 h. The final concentration of DMSO in all wells is […]. Reconstitute human M-CSF at 50 μg/ml in sterile water. (Aliquots stored in −80° C.). 1:1000 dilute human M-CSF by fresh medium to 50 ng/ml. After 24 h compounds treatment, transfer 25 μl diluted human M-CSF (50 ng/ml) to cell plate according to the plate map. The final concentration of human M-CSF in all wells is 10 ng/ml.
The plates is incubated at 37° C./5% CO2 for 5 min. In the beginning the appropriate amount of lysis buffer complete (100 μL/well) is prepared and stored on ice. After 5 min human M-CSF stimulation, wash plates once with 300 μL ice cold PBS. Then 100 μl lysis buffer is added to each well. The plate is shacked for 40 min at 4° C. Plates can now be stored at −20° C. After equilibrate the micro-well strips at room temperature, break off the required number of micro-wells. Place the micro-wells in the strip holder. Unused micro-wells must be resealed and stored at 4° C. immediately. Add 90 μl of cell lysate to the appropriate well. Seal with tape and press firmly onto top of micro-wells. Incubate the plate for 2 h at 37° C. Gently remove the tape and wash wells 4 times with 1× Wash Buffer, 200 μl each time for each well. Add 100 μl of reconstituted Detection Antibody (green color) to each well. Seal with tape and incubate the plate at 37° C. for 1 h. Repeat wash procedure. Add 100 μl of reconstituted HRP-Linked secondary antibody to each well. Seal with tape and incubate the plate for 30 min at 37° C. Repeat wash procedure. Add 100 μl of TMB Substrate to each well. Seal with tape and incubate the plate for 10 min at 37° C. or 30 min at 25° C. Calculations and Formulas: The following calculations and formulas are used for data analysis using XL Fit software: The curve fitting was made using the Sigmoidal Dose-Response Model (Fit model, 205).

[2] = test system: CSF1R (M-NFS-60 cells); assay: Cell Titer-Glo viability assay using M-NFS-60 cells; type: cell-based; settings: Mus musculus, read-out: Cellular CSF1R activity by M-NFS-60 viability assay (IC50 activity range)
Description: M-NFS-60 cells were cultured in RPMI-1640 medium containing 10% FBS, 0.05 mM 2-Mercaptoethanol, penicillin (100 U/ml)/streptomycin ([…]) and supplemented with 62 ng/ml recombinant human M-CSF at 37° C./5% CO2. Aliquots of the cells were seeded into a 96-well plate (2×10^5 cells in 100 μl/well) and then incubated at 37° C./5% CO2 1 h. Dissolve compound in 100% DMSO to make 10 mM stock solutions (Aliquots stored in the Nitrogen Cabinet). Dilute 10 mM compounds solutions for 2-fold in 100% DMSO to get 5 mM solutions (10 μl+10 μl DMSO), and then make a 3-fold serial dilution (10 μl+20 μl DMSO) for 10 doses. For reference compounds: Dilute 10 mM compounds solutions for 20-fold in 100% DMSO to get 0.5 mM solutions (2 μl+38 μl DMSO), and then make a 3-fold serial dilution (10 μl+20 μl DMSO) for 8 doses. The 96-well plate was equilibrated at room temperature for 30 min. 50 μl of CellTiter-Glo® Reagent added to each well and mixed for 2 min on an orbital shaker to induce cell lysis. The 96-well plate was incubated at room temperature for 10 min to stabilize luminescent signal. Luminescent was measured […] by EnVison plate reader. Calculations and Formulas: The following calculations and formulas are used for data analysis using XL Fit software: The curve fitting was made using the Sigmoidal Dose-Response Model (Fit model, 205).

CSF1R, sequence (P07333 20-972): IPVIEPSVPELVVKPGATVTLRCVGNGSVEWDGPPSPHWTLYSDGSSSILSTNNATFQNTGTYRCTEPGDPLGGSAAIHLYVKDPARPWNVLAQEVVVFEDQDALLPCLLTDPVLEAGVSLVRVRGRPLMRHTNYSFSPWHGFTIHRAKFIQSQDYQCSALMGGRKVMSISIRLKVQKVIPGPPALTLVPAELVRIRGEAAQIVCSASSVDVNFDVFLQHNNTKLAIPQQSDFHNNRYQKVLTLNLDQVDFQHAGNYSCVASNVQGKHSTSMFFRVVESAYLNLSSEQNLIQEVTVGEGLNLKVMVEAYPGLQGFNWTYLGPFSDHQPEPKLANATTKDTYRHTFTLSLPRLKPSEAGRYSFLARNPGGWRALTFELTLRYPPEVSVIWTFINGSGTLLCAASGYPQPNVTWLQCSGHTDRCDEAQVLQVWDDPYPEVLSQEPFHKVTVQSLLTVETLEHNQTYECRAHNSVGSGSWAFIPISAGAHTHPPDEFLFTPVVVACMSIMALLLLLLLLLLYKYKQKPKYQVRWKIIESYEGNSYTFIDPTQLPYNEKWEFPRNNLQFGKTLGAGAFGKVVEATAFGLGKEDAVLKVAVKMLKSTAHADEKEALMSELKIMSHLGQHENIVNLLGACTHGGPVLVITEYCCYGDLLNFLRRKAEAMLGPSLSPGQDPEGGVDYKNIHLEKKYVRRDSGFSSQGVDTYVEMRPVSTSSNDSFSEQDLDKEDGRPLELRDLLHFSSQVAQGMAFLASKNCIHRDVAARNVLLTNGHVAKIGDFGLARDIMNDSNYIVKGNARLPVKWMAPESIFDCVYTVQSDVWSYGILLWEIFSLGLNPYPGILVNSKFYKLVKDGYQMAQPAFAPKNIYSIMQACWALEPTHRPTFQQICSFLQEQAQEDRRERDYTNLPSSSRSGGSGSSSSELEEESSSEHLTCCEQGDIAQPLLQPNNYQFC

Question: Which results are given for `COc1cc2nccc(Oc3ccc(NC(=O)c4nn(CCO)cc4OCC(F)(F)F)cn3)c2cc1OC` [Compound 129]?
Answer: pIC50 [1]: ≤ 6.00; pIC50 [2]: ≤ 5.00

Question: How did the pIC50 [1] turn out when `COc1cc2nccc(Oc3ccc(NC(=O)c4nn(CCOC5CC5)cc4OCC(F)(F)F)cn3)c2cc1OC` [Compound 130] was run?
Answer: The pIC50 was at most 6.00.

Question: And the pIC50 [2]?
Answer: Its pIC50 is 5.00 to 6.00.
